17 molecules from patent US20040127504A1, “Benzimidazoles that are useful in treating sexual dysfunction” (priority 2002, published 2004) can be followed below.

As usually defined, the melting point is the temperature, or range, at which the solid turns liquid.

One data set deals with Male Fitch ferrets. On the set-up: species or system ferret. Conditions: in vivo, sc. Here is the method:
Male Fitch ferrets (body weights 1.0-1.5 kg) were obtained from Marshall Farms. Ferrets were fasted overnight before experimentation. Apomorphine or a compound of the present invention was administrated subcutaneously; animals were placed individually in observation cages and the drug-induced emesis and signs of nausea were determined (by direct observation) for a period of 90 minutes following drug injection. Nausea was characterized by behaviors such as licking, gagging, backing, head burying, and intense abdominal grooming. Emesis was usually preceded by these behaviors and was characterized by rhythmic abdominal contractions which were associated with vomiting or retching movement.
Sterile saline was used as vehicle. Six animals were used per dose.

The structures appear in SMILES notation.

In the case of `c1ccc(N2CCN(Cc3nc4ccccc4[nH]3)CC2)nc1` [2-[(4-pyridin-2-ylpiperazin-1-yl)methyl]-1H-benzimidazole], the “induction of emesis in ferrets” value with Male Fitch ferrets is on record as “did not induce emesis”.

In the case of `Oc1ccc(N2CCN(Cc3nc4ccccc4[nH]3)CC2)nc1` [6-[4-(1H-benzimidazol-2-ylmethyl)piperazin-1-yl]pyridin-3-ol], the melting point lay in the range of 144 to 145 °C.

On to `c1cnc(N2CCN(Cc3nc4ccccc4[nH]3)CC2)nc1` [Example 2, 2-[(4-pyrimidin-2-ylpiperazin-1-yl)methyl]-1H-benzimidazole], for which the melting point lay within 198 to 200 °C.

In turn, `N#Cc1cccnc1N1CCN(Cc2nc3ccccc3[nH]2)CC1` [Example 4, 2-[4-(1H-benzimidazol-2-ylmethyl)piperazin-1-yl]nicotinonitrile] returned a melting point of 208 to 210 °C.

Molecule `c1ccc2[nH]c(CN3CCN(c4nccs4)CC3)nc2c1` [Example 7, 2-{[4-(1,3-thiazol-2-yl)piperazin-1-yl]methyl}-1H-benzimidazole] showed a melting point of 203 to 205 °C.

Turning to `O=C(N1CCCC1)n1c(CN2CCN(c3ccccn3)CC2)nc2ccccc21` [Example 9, 2-[(4-pyridin-2-ylpiperazin-1-yl)methyl]-1-(pyrrolidin-1-ylcarbonyl)-1H-benzimidazole], the melting point lay in the range of 120 to 121 °C.

Consider `CN(C)C(=O)n1c(CN2CCN(c3ccccn3)CC2)nc2ccccc21` [Example 10, N,N-dimethyl-2-[(4-pyridin-2-ylpiperazin-1-yl)methyl]-1H-benzimidazole-1-carboxamide], for which the melting point lay in the range of 174 to 176 °C.

`N#Cc1ccccc1N1CCN(Cc2nc3ccccc3[nH]2)CC1` [Example 12, 2-[4-(1H-benzimidazol-2-ylmethyl)piperazin-1-yl]benzonitrile] returned a melting point of 236 to 237 °C.

`Clc1ccccc1N1CCN(Cc2nc3ccccc3[nH]2)CC1` [Example 13, 2-{[4-(2-chlorophenyl)piperazin-1-yl]methyl}-1H-benzimidazole] displayed a melting point of 245 to 246 °C.

`Fc1ccccc1N1CCN(Cc2nc3ccccc3[nH]2)CC1` [Example 14, 2-{[4-(2-fluorophenyl)piperazin-1-yl]methyl}-1H-benzimidazole] came in with a melting point of 262 to 264 °C.

The molecule `Oc1ccc(N2CCN(Cc3nc4ccccc4[nH]3)CC2)cc1` [Example 17, 4-[4-(1H-benzimidazol-2-ylmethyl)piperazin-1-yl]phenol] yielded a melting point of 206 to 209 °C.

`CSc1ccccc1N1CCN(Cc2nc3ccccc3[nH]2)CC1` [Example 18, 2-({4-[2-(methylthio)phenyl]piperazin-1-yl}methyl)-1H-benzimidazole] showed a melting point of 214 to 216 °C.

The molecule `Oc1ccccc1N1CCN(Cc2nc3ccccc3[nH]2)CC1` [Example 20, 2-[4-(1H-benzimidazol-2-ylmethyl)piperazin-1-yl]phenol] gave a melting point of 208 to 216 °C.

`CC1CN(c2ccccn2)CCN1Cc1nc2ccccc2[nH]1` (centres unmarked) [Example 24, 2-[(2-methyl-4-pyridin-2-ylpiperazin-1-yl)methyl]-1H-benzimidazole] came in with a melting point of 207 to 209 °C.

In the case of `C[C@H]1CN(c2ccccn2)CCN1Cc1nc2ccccc2[nH]1` [Example 25, 2-{[(2S)-2-methyl-4-pyridin-2-ylpiperazin-1-yl]methyl}-1H-benzimidazole], the melting point lay within 149 to 151 °C.

For the molecule `C[C@@H]1CN(c2ccccn2)CCN1Cc1nc2ccccc2[nH]1` [Example 26, 2-{[(2R)-2-methyl-4-pyridin-2-ylpiperazin-1-yl]methyl}-1H-benzimidazole], the melting point lay in the range of 151 to 153 °C.

`Fc1cccnc1N1CCN(Cc2nc3ccccc3[nH]2)CC1` [Example 28, 2-{[4-(3-fluoropyridin-2-yl)piperazin-1-yl]methyl}-1H-benzimidazole] gave a melting point of 210 to 212 °C.
